# Where a name gives a salt, the structure may show the parent alone.
# Assay: collision cross section in nitrogen (drift tube, single-field); higher = larger gas-phase ion size
# [1] = ion type: [M+H], ion source: ESI, ion mode: Positive
# [2] = ion type: [M+Na], ion source: ESI, ion mode: Positive
# [3] = ion type: [M-H], ion source: ESI, ion mode: Negative
# [4] = ion type: [M+H], ion source: APCI, ion mode: Positive
# [5] = ion type: [M+], ion source: APCI, ion mode: Positive
# [6] = ion source: APCI, ion mode: Positive, ion type: [M]+ (permanent cation)
# [7] = ion source: ESI, ion mode: Positive, ion type: [M]+ (permanent cation)
# 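Further: chemical standards at 10 µM analysed by drift tube IMS-QTOF MS in about 3.95 torr nitrogen, mean of duplicate injections differing ≤1%, mass error below 10 ppm.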
Compound,collision cross section in nitrogen [1],collision cross section in nitrogen [2],collision cross section in nitrogen [3],collision cross section in nitrogen [4],also measured
COc1ccc(CCN2CCC(Nc3nc4ccccc4n3Cc3ccc(F)cc3)CC2)cc1 [Astemizole],210.8 Å²,213.2 Å²,227.8 Å²,–,–
COC(=O)NS(=O)(=O)c1ccc(N)cc1 [Asulam],–,–,150.4 Å²,–,–
CC(C)NCC(O)COc1ccc(CC(N)=O)cc1 (stereo not drawn) [Atenolol],157.8 Å²,164.2 Å²,–,157.9 Å²,–
CC(C)c1c(C(=O)Nc2ccccc2)c(-c2ccccc2)c(-c2ccc(F)cc2)n1CC[C@@H](O)C[C@@H](O)CC(=O)O [Atorvastatin calcium],230.3 Å²,232.2 Å²,228.6 Å²,229.8 Å²,collision cross section in nitrogen [5]: 224.3 Å²
CC(C)c1c(C(=O)Nc2ccccc2)c(-c2ccccc2)c(-c2ccc(F)cc2)n1CC[C@@H](O)C[C@@H](O)CC(=O)O [Atorvastatin],229.7 Å²,231.4 Å²,228.4 Å²,229.1 Å²,–
CCNc1nc(NC(C)C)nc(OC)n1 [Atraton],150.5 Å²,168.1 Å²,–,–,–
CCNc1nc(Cl)nc(NC(C)C)n1 [Atrazine],149.5 Å²,–,–,149 Å²,–
CN(C)c1ccc(C(=N)c2ccc(N(C)C)cc2)cc1 [Auramine hydrochloride],169.8 Å²,–,–,168.3 Å²,–
O=C1CCCCCCCCCCCN1 [Azacyclotridecan-2-one],148.8 Å²,–,–,148.2 Å²,–
COP(=O)(OC)SCn1c(=O)oc2cc(Cl)cnc21 [Azamethiphos],161.5 Å²,171.2 Å²,–,160.6 Å²,–
Cn1cnc([N+](=O)[O-])c1Sc1ncnc2nc[nH]c12 [Azathioprine],–,172.4 Å²,155.5 Å²,158.6 Å²,–
CCOP(=S)(OCC)SCn1nnc2ccccc2c1=O [Azinphos-ethyl],–,177.9 Å²,–,–,–
CSc1nc(N=[N+]=[N-])nc(NC(C)C)n1 [Aziprotryne],148.9 Å²,–,–,149.1 Å²,–
c1ccc(N=Nc2ccccc2)cc1 [Azobenzene],–,–,–,139.5 Å²,–
O=S(=O)(O)c1ccc(N=Nc2cc(S(=O)(=O)O)c3ccccc3c2O)c2ccccc12 [Azorubine],–,–,211.8 Å²,–,–
CO/C=C(/C(=O)OC)c1ccccc1Oc1cc(Oc2ccccc2C#N)ncn1 [Azoxystrobin],195 Å²,199 Å²,–,196.5 Å²,–
O=S(=O)(c1ccc(OCc2ccccc2)cc1)c1ccccc1O [BPS-MPE4],186.1 Å²,201.9 Å²,183.9 Å²,–,–
CCCCC(CC)C(=O)O (stereo not drawn) [Barium bis(2-ethylhexanoate)],–,–,137.4 Å²,–,–
CCNc1ccc(C(=C2C=CC(=[N+](CC)CC)C=C2)c2ccc(N(CC)CC)cc2)c2ccccc12 [Basic Blue 7],–,–,–,–,collision cross section in nitrogen [6]: 241.9 Å²; collision cross section in nitrogen [7]: 240.6 Å²
CCOC(=O)Cn1c(=O)sc2cccc(Cl)c21 [Benazolin-ethyl],–,165.4 Å²,–,–,–
CNC(=O)Oc1cccc2c1OC(C)(C)O2 [Bendiocarb],–,157 Å²,–,–,–

Compound,collision cross section in nitrogen [1],collision cross section in nitrogen [2],collision cross section in nitrogen [3],collision cross section in nitrogen [4],also measured
CCCCN(CC)c1c([N+](=O)[O-])cc(C(F)(F)F)cc1[N+](=O)[O-] [Benfluralin],–,–,168.5 Å²,–,–
CCOC(=O)CCN(SN(C)C(=O)Oc1cccc2c1OC(C)(C)C2)C(C)C [Benfuracarb],197.3 Å²,201.5 Å²,–,197.3 Å²,–
O=C(Nc1ccccc1)c1ccccc1I [Benodanil],146.3 Å²,161.1 Å²,155.4 Å²,146.6 Å²,–
COC(=O)c1ccccc1CS(=O)(=O)NC(=O)Nc1nc(OC)cc(OC)n1 [Bensulfuron-methyl],–,197.8 Å²,–,–,–
CC(C)N1C(=O)c2ccccc2NS1(=O)=O [Bentazone],–,–,146.9 Å²,–,–
c1ccc2cc3c(ccc4ccccc43)cc2c1 [Benz(a)anthracene],–,–,–,–,collision cross section in nitrogen [5]: 146.3 Å²
O=C(O)CONC(=O)c1ccccc1 [Benzadox],–,150.9 Å²,–,–,–
CCCCCCCC[N+](C)(C)Cc1ccccc1 [Benzalkonium chloride C8 (BAC C8)],–,–,–,–,collision cross section in nitrogen [6]: 170.1 Å²; collision cross section in nitrogen [7]: 171.3 Å²
CCCCCCCCCCCC[N+](C)(C)Cc1ccccc1 [Benzalkonium chloride C12 (BAC C12)],–,–,–,–,collision cross section in nitrogen [6]: 193 Å²; collision cross section in nitrogen [7]: 193.9 Å²
CCCCCCCCCCCCCCCC[N+](C)(C)Cc1ccccc1 [Benzalkonium chloride C16 (BAC C16)],–,–,–,–,collision cross section in nitrogen [6]: 208.9 Å²
CCCCCCCCCCCCCCCCCC[N+](C)(C)Cc1ccccc1 [Benzalkonium chloride C18 (BAC C18)],–,–,–,–,collision cross section in nitrogen [6]: 215.1 Å²; collision cross section in nitrogen [7]: 216.6 Å²
"CCOC(=O)Cc1ccccc1 [Benzeneacetic acid, ethyl ester]",–,–,144.3 Å²,–,–
"N=C(N)c1ccccc1 [Benzenecarboximidamide, monohydrochloride]",125 Å²,–,–,124.7 Å²,–
O=S(=O)(O)c1ccccc1 [Benzenesulfonic acid],–,–,127.2 Å²,–,–
c1ccc2[nH]cnc2c1 [Benzimidazole],121.8 Å²,–,–,121 Å²,–
c1ccc2c(c1)ccc1ncccc12 [Benzo(f)quinoline],134.8 Å²,–,–,134.7 Å²,collision cross section in nitrogen [5]: 130.3 Å²
c1ccc2c(c1)c1cccc3ccc4cccc2c4c31 [Benzo[e]pyrene],–,–,–,–,collision cross section in nitrogen [5]: 149.7 Å²
c1ccc2cc3c(cc2c1)-c1cccc2cccc-3c12 [Benzo[k]fluoranthene],–,–,–,–,collision cross section in nitrogen [5]: 151.3 Å²
Oc1nc2ccccc2s1 [Benzothiazolone],–,–,123.7 Å²,–,–
O=C(OCc1ccccc1)c1ccc(O)cc1 [Benzyl 4-hydroxybenzoate],–,–,158.5 Å²,–,–
